Results as given in paper PMC8667612 (Journal of medicinal chemistry, 2021).
Values joined by “and” are separate entries in the source; they are usually repeats but may differ in a detail not shown here. Equal values may be shown once.

Columns and labels:
[1] = molecular target: T1, N. fowleri CYP51 (Naegleria fowleri, UniProt A0A6A5BCR7, E4K/I5A/S2A, form not given); conditions: read-out: IC50 (1 h reaction)
[2] = molecular target: T1, N. fowleri CYP51; assay type: biochemical; conditions: 0.5 μM P450, 60 s at 37 °C, sterol 3–50 μM

Row | SMILES | IC50 [1] | Km [2]
1 | O=C(N[C@@H](Cn1ccnc1)c1ccc(-c2ccc(F)cc2)cc1Cl)c1ccc(-c2nnc(-c3ccccc3)o2)cc1 [VFV-Cl, (R)-N-(1-(3-chloro-4’-fluoro-[1,1’-biphenyl]-4-yl)-2-(1H-imidazol-1-yl)ethyl)-4-(5-phenyl-1,3,4-oxadiazol-2-yl)benzamide] | 5.9 µM and 5.94 µM | –
2 | O=C(N[C@@H](Cn1ccnc1)c1ccc(-c2ccc(F)cc2)cc1F)c1ccc(-c2nnc(-c3ccccc3)o2)cc1 [VFV, (R)-N-(1-(3,4’-difluoro-[1,1’-biphenyl]-4-yl)-2-(1H-imidazol-1-yl)-ethyl)-4-(5-phenyl-1,3,4-oxadiazol-2-yl)benzamide] | 0.68 µM | –
3 | C=C(CC[C@@H](C)[C@H]1CC[C@@]2(C)C3=C(CC[C@]12C)[C@@]1(C)CC[C@H](O)[C@@H](C)[C@@H]1CC3)C(C)C [obtusifoliol] | – | 8 ± 1 µM
4 | CC(C)=CCC[C@@H](C)[C@H]1CC[C@@]2(C)C3=C(CC[C@]12C)[C@@]1(C)CC[C@H](O)C(C)(C)[C@@H]1CC3 [lanosterol] | – | 48 ± 10 µM
5 | C[C@@H](c1nc(-c2ccc(C#N)cc2)cs1)[C@](O)(Cn1cncn1)c1cc(F)ccc1F [isavuconazole, reference compound] | 0.96 µM | –
